The values that follow come from US6365620B2, “Trifluoromethylpyrrolcarboxamides” (Syngenta Crop Protection, Inc., priority 1998, dated 2002).

As usually defined, the melting point is the temperature, or range, at which the solid turns liquid.

As to `Cn1cc(C(=O)Nc2ccccc2-c2ccccc2)c(C(F)(F)F)c1` [Compound 1.01, N-(2-biphenylyl)-1-methyl-4-trifluoromethylpyrrol-3-carboxamide], the melting point lay within 100 to 102 °C.
